Measurements as given in patent US9630962B2, “4-amino-6-(2,6-dichlorophenyl)-2-(phenylamino)-pyrido[2,3-d]pyrimidin-7(8H)-one derivatives, synthesis and uses thereof” (INSTITUT QUÍMIC DE SARRIÁ, CETS FUNDACIÓ PRIVADA, priority 2013, dated 2017).
Like-named read-outs stand apart in the source and are kept apart here.

Tests used:
[1] = target: T1, BTK (Homo sapiens, UniProt Q06187); assay: Radiometric protein kinase assay (33PanQinase Activity Assay), residual activity; type: biochemical; conditions: 10 μM (1×10^−05 M) test compound, singlicate
T1 construct: purchased ProQinase; host or cells: Sf9 insect cells or E. coli (not specified per kinase)
Procedure: (§1) The kinase inhibition profile of compounds of formula (I) was evaluated at Proqinase (http://www.proqinase.conn) by measuring residual activity values at a concentration of 10 μM of the test compound in singlicate in front of the following kinases: BTK, LYN, SYK aa1-635 using the following protocol:
(§2) The compounds were dissolved to 1×10^−03 M stock solutions in 100% DMSO. Subsequently, 100 μl of each stock solution were transferred into wells A3-F12 of a microtiter plate (“master plate”). Wells A1-F2 were filled with 100 μl 100% DMSO as controls. 5×10 μl of the master plate were aliquoted into 5 copy plates, which were stored at −20° Celsius until use. For the testing of each group of up to 8 kinases, one copy plate was used.
(§3) In the process, 90 μl H2O were added to each well of a copy plate. To minimize precipitation, the H2O was added to each well only a few minutes before the transfer of the compound solutions into the assay plates. The plate was shaken thoroughly, resulting in a “compound dilution plate” with a compound concentration of 1×10^−04 M/10% DMSO. This plate was used for the transfer of 5 μl compound solution into the assay plates. The final volume of the assay was 50 μl. All compounds were tested at 1×10^−05 M in singlicate. The final DMSO concentration in the reaction cocktails was 1% in all cases. The compound dilution plates were disposed at the end of each working day.
(§4) A radiometric protein kinase assay (^33PanQinase® Activity Assay) was used for measuring the kinase activity of the corresponding protein kinases. All kinase assays were performed in 96-well FlashPlates™ from Perkin Elmer (Boston, Mass., USA) in a 50 μl reaction volume. The reaction cocktail was pipetted in 4 steps in the following order: • 10 μl of non-radioactive ATP solution (in H2O) • 25 μl of assay buffer/[γ-33P]-ATP mixture • 5 μl of test sample in 10% DMSO • 10 μl of enzyme/substrate mixture
(§5) The protein kinase reaction cocktails were incubated at 30° C. for 60 minutes. The reaction was stopped with 50 μl of 2% (v/v) H3PO4, plates were aspirated and washed two times with 200 μl 0.9% (w/v) NaCl. All assays were performed with a BeckmanCoulter Biomek 2000/SL robotic system. Incorporation of ^33Pi (counting of “cpm”) was determined with a microplate scintillation counter (Microbeta, Wallac).
(§6) All protein kinases provided by ProQinase were expressed in Sf9 insect cells or in E. coli as recombinant GST-fusion proteins or His-tagged proteins. All kinases were produced from human cDNAs and purified by either GSH-affinity chromatography or immobilized metal. Affinity tags were removed from a number of kinases during purification. The purity of the protein kinases was examined by SDS-PAGE/Coomassie staining, the identity was checked by mass spectroscopy.
(§7) For each kinase, the median value of the cpm of six wells of column 1 of each assay plate was defined as “low control” (n=6). This value reflects unspecific binding of radioactivity to the plate in the absence of a protein kinase but in the presence of the substrate. Additionally, for each kinase the median value of the cpm of six wells of column 2 of each assay plate was taken as the “high control”, i.e. full activity in the absence of any inhibitor (n=6). The difference between high and low control of each enzyme was taken as 100% activity.
(§8) As part of the data evaluation the low control of each kinase was subtracted from the high control value as well as from their corresponding “compound values”. The residual activity (in %) for each compound well was calculated by using the following formula: Res. Activity (%)=100×[(signal of compound −low control)/(high control −low control)] Results
(§9) The singlicate residual activity values of the tested compounds at one concentration (1×10^−05 M) in singlicate in the required protein kinase assays are given.

[2] = target: T2, LYN (Homo sapiens, UniProt P07948); assay: as above; type: biochemical; conditions: 10 μM (1×10^−05 M) test compound, singlicate
T2 construct: purchased ProQinase; host or cells: Sf9 insect cells or E. coli (not specified per kinase)
Procedure: as §1, §2, §3, §4, §5, §6, §7, §8, §9

[3] = target: T3, SYK aa1-635 (Homo sapiens, UniProt P43405); assay: as above; type: biochemical; conditions: 10 μM (1×10^−05 M) test compound, singlicate
T3 construct: BTK, LYN, SYK aa1-635; purchased ProQinase; host or cells: Sf9 insect cells or E. coli (not specified per kinase)
Procedure: as §1, §2, §3, §4, §5, §6, §7, §8, §9

[4] = system: CLL cell lines; assay: MTT proliferation assay, growth inhibition; type: cell-based; conditions: n = 3 cell lines
Procedure: (§10) Cell culture: cell lines were grown in suitable culture media at 37° C. in a humidified atmosphere containing 5% CO2. The following MCL cell lines were used in the assays: Rec-1, HBL-2, UPN-1, Jeko-1, JVM-2, Maver-1, Mino, Granta-519, and Z-138. The following CLL cell lines were used in the assays: MEC-2, JVM-13, and MEC-1. The following FL cell lines were used in the assays: DoHH-2, WSU-NHL, WSU-FSCCL, and SC-1. The following DLBCL cell lines were used in the assays: OCI-LY8, SUDHL-8, U-2932, and SUDHL-16. The following media were used for the indicated cell lines: RPMI 1640+10% foetal bovine serum (FBS) for Rec-1, HBL-2, UPN-1, JVM-2, MAVER, Z138, Mino, JVM-13, WSU-NHL, WSU-FSCCL, DOHH2, SC-1 and U2932; RPMI 1640+20% FBS for Jeko-1, SUDHL-8 and SUDHL-16; DMEM+10% FBS for Granta-519; IMDM+10% FBS for MEC-1 and MEC-2; IMDM+20% FBS for OCI-LY8.
(§11) Analysis of the growth inhibition is carried out using the MTT (Thiazolyl Blue Tetrazolium Bromide) proliferation assay: cells grown in exponential phase were seeded in 96 well plates at 0.5×10^6 cell/ml and treated with 4-amino-6-(2,6-dichlorophenyl)-8-methyl-2-(4-(4-methylpiperazin-1-yl)phenylamino)pyrido[2,3-d]pyrimidin-7(8H)-one (Example 5) at the doses of 0.5, 1.5, 10, 20, 50 and 100 μM. After 24 h or 48 h, MTT reagent was added to each well, incubated for 2 h and plates were then read in a Synergy-HT Multi-Mode Microplate Reader (Biotek).

[5] = system: DLBCL cell lines; assay: MTT proliferation assay, growth inhibition; type: cell-based; conditions: n = 4 cell lines
Procedure: as §10, §11

[6] = system: FL cell lines; assay: MTT proliferation assay, growth inhibition; type: cell-based; conditions: n = 4 cell lines
Procedure: as §10, §11

[7] = system: MCL cell lines; assay: MTT proliferation assay, growth inhibition; type: cell-based; conditions: N9, n = 9 cell lines
Procedure: as §10, §11

[8] = system: panel of 20 NHLs cell lines; assay: MTT proliferation assay, growth inhibition; type: cell-based; conditions: all tested cell lines
Procedure: as §10, §11

[9] = system: phospho-Lyn; assay: Western blot of BCR kinase phosphorylation in NHL cell lines; type: cell-based; conditions: 6 h, UPN-1, JVM-13, DoHH-2, SUDHL-16 cells
Procedure: (§12) Analysis of B-Cell Receptor (BCR) activation signaling molecules by Western Blot and flow cytometry. Total protein extracts in 1% Triton X-100 plus protease and phosphatase inhibitors were made from cells treated with a range of doses of the indicated compound (0.1, 1, 5 and 10 μM). These cells lysates were resolved by standard SDS-PAGE (sodium dodecyl sulfate polyacrylamide gel electrophoresis), transferred to PVDF (polyvinylidene difluoride) membranes and incubated overnight with the indicated primary antibodies (pSyk, pLyn and β-actin) followed by species-matched secondary horseradish peroxidase (HRP)-labelled antibodies. Chemiluminiscence was developed adding ECL (enhanced chemilumiscence) reagent and signal was captured in a LAS4000 device using Image Gauge software (Fujifilm). Intracellular amount of PhosphoY223-Btk was determined by inmunostaining with an anti-phosphoY223-Btk-PE antibody (clone N35-86), using IgG1 K isotype-PE as negative control (BD Biosciences). After the different treatments, cells (5×10^5) were fixed in 4% paraformaldehyde in PBS (15 min, 4° C.), permeabilized with cold methanol (10 min, −20° C.), washed with PBS containing 1% BSA and incubated with the indicated antibodies at room temperature for 15 min. Finally, cells were washed with PBS containing 1% BSA, resuspended in 500 μl PBS and analyzed by flow cytometry in an Attune acoustic focusing cytometer (Life Technologies). The Mean Fluorescence Ratio (MFIR) between the mean fluorescence intensity of Btk-PE signal and isotypic control was then calculated for both untreated and treated conditions. These MFIR were then referred to the untreated control (r).
(§13) To further assess the inhibitory effect of 4-amino-6-(2,6-dichlorophenyl)-8-methyl-2-(4-(4-methylpiperazin-1-yl)phenylamino)pyrido[2,3-d]pyrimidin-7(8H)-one (Example 5) on the activity of BCR kinases, a set of 4 cell lines representative of each entity was exposed for 6 h to increased doses of 4-amino-6-(2,6-dichlorophenyl)-8-methyl-2-(4-(4-methylpiperazin-1-yl)phenylamino)pyrido[2,3-d]pyrimidin-7(8H)-one (Example 5) and cell contents in phospho-Syk and phospho-Lyn were analysed by SDS-PAGE and western blotting with specific antibodies, using β-actin as a loading control. […] For the evaluation of phospho-Btk protein levels, cell lines were treated as above with a 5 μM dose of the compound and stained with an anti-phospho-Btk phycoerythin(PE)-labeled antibody followed by flow cytometry analysis.

[10] = system: phospho-Syk; assay: as above; type: cell-based; conditions: 6 h, UPN-1, JVM-13, DoHH-2, SUDHL-16 cells
Procedure: as §12, §13

[11] = system: PhosphoY223-Btk; assay: Flow cytometry of intracellular PhosphoY223-Btk; type: cell-based; conditions: 5 μM, 6 h
Procedure: as §12, with “After the different treatments, cells (5×10^5) were fixed in 4% paraformaldehyde in PBS (15 min, 4° C.), permeabilized with cold methanol (10 min, −20° C.), washed with PBS containing 1% BSA and incubated with the indicated antibodies at room temperature for 15 min.” left out, “These MFIR were then referred to the untreated control (r).” left out
To further assess the inhibitory effect of 4-amino-6-(2,6-dichlorophenyl)-8-methyl-2-(4-(4-methylpiperazin-1-yl)phenylamino)pyrido[2,3-d]pyrimidin-7(8H)-one (Example 5) on the activity of BCR kinases, a set of 4 cell lines representative of each entity was exposed for 6 h to increased doses of 4-amino-6-(2,6-dichlorophenyl)-8-methyl-2-(4-(4-methylpiperazin-1-yl)phenylamino)pyrido[2,3-d]pyrimidin-7(8H)-one (Example 5) and cell contents in phospho-Syk and phospho-Lyn were analysed by SDS-PAGE and western blotting with specific antibodies, using β-actin as a loading control. […]

[12] = system: relapsed/refractory non-Hodgkin's lymphoma and CLL; conditions: cited from earlier work
[13] = 24 h, read-out: GI50 range at 24 h
[14] = 24 h, read-out: Mean GI50 at 24 h
[15] = 48 h, read-out: GI50 range at 48 h
[16] = 48 h, read-out: Mean GI50 at 48 h

T2 sequence (P07948 whole entry): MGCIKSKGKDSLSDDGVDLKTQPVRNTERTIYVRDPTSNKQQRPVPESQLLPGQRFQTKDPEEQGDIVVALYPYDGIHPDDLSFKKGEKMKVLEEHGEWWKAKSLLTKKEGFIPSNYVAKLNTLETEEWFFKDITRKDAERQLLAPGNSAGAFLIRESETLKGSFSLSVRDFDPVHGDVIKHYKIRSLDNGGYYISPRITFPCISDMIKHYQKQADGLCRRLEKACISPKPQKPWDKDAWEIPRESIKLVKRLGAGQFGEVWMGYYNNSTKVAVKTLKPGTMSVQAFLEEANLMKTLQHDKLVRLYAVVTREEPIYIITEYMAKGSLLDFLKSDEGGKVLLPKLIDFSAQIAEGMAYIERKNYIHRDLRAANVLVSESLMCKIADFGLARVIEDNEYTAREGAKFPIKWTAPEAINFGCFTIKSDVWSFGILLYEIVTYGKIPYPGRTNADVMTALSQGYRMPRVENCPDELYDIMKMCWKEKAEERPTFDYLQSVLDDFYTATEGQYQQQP
T1 sequence (Q06187 whole entry): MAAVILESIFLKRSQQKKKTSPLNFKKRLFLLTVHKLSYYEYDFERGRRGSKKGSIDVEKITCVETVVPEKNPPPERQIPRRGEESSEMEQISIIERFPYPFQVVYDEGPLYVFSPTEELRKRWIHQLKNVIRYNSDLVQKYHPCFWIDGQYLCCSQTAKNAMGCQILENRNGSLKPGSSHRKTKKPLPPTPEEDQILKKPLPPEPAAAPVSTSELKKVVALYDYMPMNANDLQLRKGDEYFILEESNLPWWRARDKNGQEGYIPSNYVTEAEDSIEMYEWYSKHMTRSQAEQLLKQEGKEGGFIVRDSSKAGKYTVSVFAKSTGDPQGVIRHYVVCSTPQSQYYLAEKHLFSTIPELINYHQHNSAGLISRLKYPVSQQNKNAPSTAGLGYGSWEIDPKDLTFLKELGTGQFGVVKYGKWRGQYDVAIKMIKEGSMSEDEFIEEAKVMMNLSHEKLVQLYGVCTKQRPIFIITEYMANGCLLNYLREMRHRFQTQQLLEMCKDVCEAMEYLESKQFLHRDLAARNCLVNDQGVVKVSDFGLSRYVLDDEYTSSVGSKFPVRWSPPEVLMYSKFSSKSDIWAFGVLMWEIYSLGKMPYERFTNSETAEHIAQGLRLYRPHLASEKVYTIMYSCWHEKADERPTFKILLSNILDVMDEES

CN1CCN(c2ccc(Nc3nc(N)c4cc(-c5c(Cl)cccc5Cl)c(=O)n(C)c4n3)cc2)CC1 [Example 5, 4-amino-6-(2,6-dichlorophenyl)-8-methyl-2-(4-(4-methylpiperazin-1-yl)phenylamino)pyrido[2,3-d]pyrimidin-7(8H)-one]
remaining activity at 10 µM [1]: 3% | remaining activity at 10 µM [2]: -1% | remaining activity at 10 µM [3]: 9% | GI50 [4, 13]: 5.3 to 6.8 µM | GI50 [4, 14]: 5.9 µM | GI50 [4, 15]: 4.5 to 5.5 µM | GI50 [4, 16]: 4.9 µM | GI50 [5, 13]: 4.3 to 6.9 µM | GI50 [5, 14]: 5.4 µM | GI50 [5, 15]: 3.8 to 7.2 µM | GI50 [5, 16]: 5 µM | GI50 [6, 13]: 2.6 to 4.9 µM | GI50 [6, 14]: 3.7 µM | GI50 [6, 15]: 1.4 to 4.4 µM | GI50 [6, 16]: 2.7 µM | GI50 [7, 13]: 1.3 to 5.9 µM | GI50 [7, 14]: 3.6 µM | GI50 [7, 15]: 2.2 to 3.6 µM | GI50 [7, 16]: 3 µM | GI50 ([8]; 24 h, read-out: GI50 mean): 4.3 µM | GI50 ([8]; 24 h, read-out: GI50 range): 1.3 to 6.9 µM | GI50 ([8]; 48 h, read-out: GI50 mean): 3.6 µM | GI50 ([8]; 48 h, read-out: GI50 range): 1.4 to 7.2 µM | Lyn phosphorylation inhibition ([9]; 1 μM): already detectable | Lyn phosphorylation inhibition ([9]; 5 μM): significantly enhanced | Lyn phosphorylation inhibition ([9]; 10 μM): almost completely achieved | Syk phosphorylation inhibition ([10]; 1 μM): already detectable | Syk phosphorylation inhibition ([10]; 5 μM): significantly enhanced | Syk phosphorylation inhibition ([10]; 10 μM): almost completely achieved | downregulation of phospho-Btk (decrease of mean fluorescence intensity ratio) ([11]; DoHH-2 cells): 60% | downregulation of phospho-Btk (decrease of mean fluorescence intensity ratio) ([11]; JVM-13 cells): 60% | downregulation of phospho-Btk (decrease of mean fluorescence intensity ratio) ([11]; UPN-1 cells): 30%

Cn1c(=O)c(-c2c(Cl)cccc2Cl)cc2c(N)nc(Nc3ccc(NCCN4CCOCC4)cc3)nc21 [Example 6, 4-amino-6-(2,6-dichlorophenyl)-8-methyl-2-(4-(2-morpholinoethylamino)-phenylamino)-pyrido[2,3-d]pyrimidin-7(8H)-one]
remaining activity at 10 µM [1]: 10% | remaining activity at 10 µM [2]: 0% | remaining activity at 10 µM [3]: 31%

Cn1c(=O)c(-c2c(Cl)cccc2Cl)cc2c(N)nc(Nc3ccc(OCCN4CCOCC4)cc3)nc21 [Example 7, 4-amino-6-(2,6-dichlorophenyl)-8-methyl-2-(4-(2-morpholinoethoxy)-phenylamino)-pyrido[2,3-d]pyrimidin-7(8H)-one]
remaining activity at 10 µM [1]: 16% | remaining activity at 10 µM [2]: 0% | remaining activity at 10 µM [3]: 44%

COc1cc(Nc2ncc(F)c(Nc3ccc4c(n3)N(COP(=O)(O)O)C(=O)C(C)(C)O4)n2)cc(OC)c1OC [fostamatinib]
response rate ([12]; DLBCL patients): 22% | response rate ([12]; FL patients): 10% | response rate ([12]; MCL patients): 11% | partial response (PR) ([12]; patients with CLL (6 of 11)): 55% | dose-limiting toxicity ([12]; phase 1/2 study): diarrhea, neutropenia, and thrombocytopenia
